Laboratory results: patent US20230256094A1, “CANCER RADIOSENSITIZATION BY IN SITU FORMATION OF GOLD NANOPARTICLES AND/OR GOLD NANOCLUSTERS” (BOARD OF REGENTS, THE UNIVERSITY OF TEXAS SYSTEM, priority 2020, published 2023)

What was measured:
pancreatic cancer = conditions: in combination with SBRT; cited from earlier work
[1] = system: 3T3 mouse fibroblast cells; experiment: MTS assay of radiosensitization after X-ray irradiation; type: cell-based; conditions: 1 mM, 10 hours; X-rays at 4 and 6 Gy
Experimental: Our initial evaluation of radiosensitization via intracellular GNP formation was performed with 3T3 mouse fibroblast cells. […] Radiosensitization with intracellular GNC formation (i.e., delivery of Au^3+) was compared with pre-fabricated albumin-coated GNCs (Albumin-GNC) prepared according to work by Xie^46 and control cells without treatment via MTS assay (FIG. 3B).
3T3 cells were first incubated with either 1 mM of sodium chloroaurate or albumin-GNCs (0.1 mM Au^0)in cell culture media for 10 hours. Then, the cells including the nontreated control were irradiated with X-rays at dosages of 0, 4 and 6 Gy in the X-ray X-RAD 225 CX irradiator system (Precision).
In our future studies we will use a standard clonogenic survival assay for quantitation of the radiosensitization effect.

[2] = system: pancreatic cancer cells (MIAPACA2); experiment: Confocal fluorescence imaging of in situ GNC synthesis; type: cell-based, human
Experimental: FIG. 4 presents fluorescence confocal images of non-cancerous (HPDE) and cancerous (MIAPaCa2) pancreatic cells treated with either 1 mM of Au^3+ gold ions or premade albumin-GNCs at 1 mM Au^0 for 24 hours. (From left to right) Cells: untreated; treated with albumin-GNCs; treated with Au^3+ gold ions. […] The strong red fluorescence in cancer cells indicated intracellular synthesis of GNCs from gold ions. Scale bars are 25 μm.
We compared in situ synthesis of GNCs by pancreatic cancer cells (MIAPACA2) and pancreatic noncancerous cells (HPDE) (FIG. 4). Confocal fluorescence images were obtained using a Leica TCS SP8 confocal microscope with 561 nm excitation and 610 nm emission optimized for detection of GNCs.

| Structure (SMILES) | overall survival (OS) (pancreatic cancer) [months] | radiosensitization by in situ synthetized GNCs as compared to Albumin-GNC control (MTS) [1] | intracellular distribution of fluorescence from GNCs ([2]; MIAPACA2, optical sectioning) | GNC fluorescence / GNC formation ([2]; MIAPACA2, 1 mM, 24 hours, 561 nm excitation, 610 nm emission) |
| --- | --- | --- | --- | --- |
| Nc1ccn([C@@H]2O[C@H](CO)[C@@H](O)C2(F)F)c(=O)n1 [gemcitabine] | 13.9 |  |  |  |
| [Cl][Au-]([Cl])([Cl])[Cl].[Na+] [sodium chloroaurate] |  | significant increase in radiosensitization | uniformly distributed throughout the intracellular space with a significant fraction in nuclei | striking increase in GNC formation |
